# System: Zebrafish larvae injected with gentamicin
# Assay: Zebrafish gentamicin kidney injury survival assay
# Assay type: in vivo
# Description: Potential efficacy was tested in zebrafish assays, essentially as follows. Zebrafish were maintained as described (see, e.g., Cianciolo Cosentino, C., et al. (2013) Histone deacetylase inhibitor enhances recovery after AKI. J Am Soc Nephrol, 24 (6), 943-53 and Skrypnyk, N. I., et al. (2016) Delayed treatment with PTBA analogs reduces postinjury renal fibrosis after kidney injury. Am J Physiol Renal Physiol, 310 (8), F705-F716), and embryos from Pitt AB wildtype were used. Zebrafish larvae were injected with a single dose of gentamicin at 3 dpf with 7 ng of gentamicin as previously described. Prior to the gentamicin injection, 3 dpf zebrafish larvae were anesthetized in 0.2% tricaine/E3 medium (5 mM NaCl, 0.33 mM CaCl2), 0.33 mM MgSO4, and 0.17 mM KCl). Glass capillaries were pulled to produce microneedles and were aspirated with […] of 7 ng/nL gentamicin solution diluted with filtered saline solution (Aspen Veterinary Resources, Cat No. 17861615). The larvae were injected with 1 nL gentamicin solution, delivered via the common cardinal vein. After injection, larvae were incubated in 50 μg/mL penicillin/streptomycin diluted in E3 medium. […]
# Data were analyzed as compounds that extend survival as measured by Kaplan-Meier estimator.
# Table A provides preliminary calculated hazard ratios (n=1) for tested compounds (see also FIGS. 3A and 3B). […]
smiles,measurement,setting,value
COC(=O)CCCSc1ccccc1 [UPHD 25],"larval survival compared to the injured, untreated control","4 μM from 2 days post-injection, days 5-11 post-fertilization",increase larval survival
same,survival as measured by Kaplan-Meier estimator,"positive control, all survival assays",statistically significant

# Source: US20260263415A1, “Sulfonamides With Activity in Acute Kidney Injury and Fibrosis” (University of Pittsburgh - Of the Commonwealth System of …, priority 2023, published 2026)
